Test results: PubChem BioAssay AID1963968 (Molecular Pharmacology Branch, DTP, NCI, 2024)

Tested on: 945468-187-T-J3-PDC spheroids with HUVEC/MSC, viability
Experiment: Anticancer human tumor 945468-187-T-J3-PDC patient-derived rectal carcinoma cell line growth inhibition [PI3K]
Conditions: for IC50: curve of first compound; for viability, T/C: stronger effect = lower value
Description: Combinatorial screen of targeted agents with the PI3K inhibitors inavolisib, alpelisib, duvelisib, and copanlisib in multi-cell type tumor spheroids
A high-throughput screen of multi-cell type tumor spheroids was designed to identify active combinations of targeted small molecules and PI3K pathway inhibitors. Complex spheroids include a stromal component modeled by human endothelial cells (HUVEC) and fibroblasts modeled by human mesenchymal stem cells (MSCs). The concentration ranges selected for each drug and investigational agent were based upon clinically achievable concentrations if the clinical Cmax of the agent was known.
Compounds. The drugs and investigational agents: inavolisib (NSC800729), alpelisib (NSC765974), duvelisib (NSC772469), copanlisib (NSC816437), ipatasertib (NSC767898), afuresertib (NSC778305), talazoparib (NSC767125), sapanisertib (NSC764658), selumetinib (NSC741078), tovorafenib (DAY101, NSC766906), vemurafenib (NSC761431), ravoxertinib (NSC781343), sotorasib (NSC818433), MRTX1133 (NSC 836407), abemaciclib (NSC 768073), palbociclib (NSC758247), venetoclax (NSC 766270), SY5609 (NSC837396), enzalutamide (NSC755605), and darolutamide (NSC825331), were obtained from the National Cancer Institute (NCI) Developmental Therapeutics Program Chemical Repository. The FDA-approved anticancer drug set is available from the NCI Developmental Therapeutics Program. […] The stock solutions were prepared in dimethyl sulfoxide (DMSO, Sigma-Aldrich, St. Louis, MO, cat. D2650) at 800-fold the tested concentration and stored at -70 degrees C prior to their use. All drugs and investigational agents were tested over a range starting from a high concentration at or near the clinical Cmax and decreasing in half-log increments. If the clinical Cmax for an agent had not been determined, the highest concentration tested was 10 microM.
Cell Culture. All cells were maintained in an incubator at 37 degrees C and 5% CO2 with 95% humidity. The PDC lines were cultured according to standard operating procedures established by the NCI PDMR (https://pdmr.cancer.gov/sops/default.htm). All PDCs were thawed and cultured in Matrigel-coated flasks prepared with a working solution of 1X Ham's F-12 nutrient mix, without supplementation (Invitrogen, Waltham, MA, cat. 11765054), 100 U/mL penicillin-streptomycin (Invitrogen, cat. 15140122), and 2.5% Matrigel (Corning Inc., Corning, NY, cat. 354248) for the first three passages. The 354836-022-R-J1-PDC, 475296-252-R-J1-PDC, and 997726-040-R-J2-PDC lines were cultured in 6A media, which includes advanced DMEM/F-12 (Thermo Fisher Scientific, cat. 12634028), 10 mM HEPES (Thermo Fisher Scientific, cat. 15630080), 1X GlutaMAX supplement (Thermo Fisher Scientific, cat. 35050061), 0.1 mg/mL primocin (InvivoGen, San Diego, CA, cat. ant-pm-2), 10% defined fetal bovine serum, heat inactivated (HyClone Laboratories Inc., Logan, UT, cat. SH30070.03HI), 50% L-WRN conditioned media (ATCC, cat. CRL-3276), 1.25 mM N-Acetyl-L-cysteine (Sigma-Aldrich, cat. A9165), 10 mM nicotinamide (Sigma-Aldrich, cat. N0636), 1X B-27 supplement (Thermo Fisher Scientific, cat. 17504044), 1X N-2 supplement (Thermo Fisher Scientific, cat. 17502048), and 10 microM Y-27632 dihydrochloride (Tocris Bioscience, Bristol, United Kingdom, cat. 1254). The 624824-186-R-J2-PDC line was cultured in 6C/Colon 1B media, which includes all 6A media components plus 50 ng/mL human EGF recombinant protein (Thermo Fisher Scientific, cat. PHG0311). […]
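Note: spheroids exposed to agents for 7 days before viability read.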
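Throughout, for viability, T/C: 100% = DMSO vehicle control viability.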

## C#Cc1c(F)ccc2cc(O)cc(-c3ncc4c(N5CC6CCC(C5)N6)nc(OCC56CCCN5CC(F)C6)nc4c3F)c12 (configuration not stated) + CC(Nc1ccc2c(c1)OCCn1cc(N3C(=O)OCC3C(F)F)nc1-2)C(N)=O
Second compound 0.00316 µM
  IC50: > 10 µM
Second compound 0.01 µM
  IC50: > 10 µM
Second compound 0.0316 µM
  IC50: > 10 µM
Second compound 0.1 µM
  IC50: > 10 µM
Second compound 0.316 µM
  IC50: > 10 µM
Second compound 1 µM
  IC50: 2.76 µM
Second compound 0.00316 µM, first compound 0.0316 µM
  viability, T/C: 94%
Second compound 0.00316 µM, first compound 0.1 µM
  viability, T/C: 103%
Second compound 0.00316 µM, first compound 0.316 µM
  viability, T/C: 94%
Second compound 0.00316 µM, first compound 1 µM
  viability, T/C: 114%
Second compound 0.00316 µM, first compound 3.16 µM
  viability, T/C: 120%
Second compound 0.00316 µM, first compound 10 µM
  viability, T/C: 113%
Second compound 0.01 µM, first compound 0.0316 µM
  viability, T/C: 94.1%
Second compound 0.01 µM, first compound 0.1 µM
  viability, T/C: 100%
Second compound 0.01 µM, first compound 0.316 µM
  viability, T/C: 94.6%
Second compound 0.01 µM, first compound 1 µM
  viability, T/C: 115%
Second compound 0.01 µM, first compound 3.16 µM
  viability, T/C: 138%
Second compound 0.01 µM, first compound 10 µM
  viability, T/C: 102%
Second compound 0.0316 µM, first compound 0.0316 µM
  viability, T/C: 100%
Second compound 0.0316 µM, first compound 0.1 µM
  viability, T/C: 104%
Second compound 0.0316 µM, first compound 0.316 µM
  viability, T/C: 99.8%
Second compound 0.0316 µM, first compound 1 µM
  viability, T/C: 118%
Second compound 0.0316 µM, first compound 3.16 µM
  viability, T/C: 115%
Second compound 0.0316 µM, first compound 10 µM
  viability, T/C: 105%
Second compound 0.1 µM, first compound 0.0316 µM
  viability, T/C: 122%
Second compound 0.1 µM, first compound 0.1 µM
  viability, T/C: 112%
Second compound 0.1 µM, first compound 0.316 µM
  viability, T/C: 97%
Second compound 0.1 µM, first compound 1 µM
  viability, T/C: 117%
Second compound 0.1 µM, first compound 3.16 µM
  viability, T/C: 115%
Second compound 0.1 µM, first compound 10 µM
  viability, T/C: 103%
Second compound 0.316 µM, first compound 0.0316 µM
  viability, T/C: 111%
Second compound 0.316 µM, first compound 0.1 µM
  viability, T/C: 99.6%
Second compound 0.316 µM, first compound 0.316 µM
  viability, T/C: 91.3%
Second compound 0.316 µM, first compound 1 µM
  viability, T/C: 106%
Second compound 0.316 µM, first compound 3.16 µM
  viability, T/C: 91%
Second compound 0.316 µM, first compound 10 µM
  viability, T/C: 56.1%
Second compound 1 µM, first compound 0.0316 µM
  viability, T/C: 76.2%
Second compound 1 µM, first compound 0.1 µM
  viability, T/C: 73.2%
Second compound 1 µM, first compound 0.316 µM
  viability, T/C: 64.9%
Second compound 1 µM, first compound 1 µM
  viability, T/C: 70.2%
Second compound 1 µM, first compound 3.16 µM
  viability, T/C: 47.3%
Second compound 1 µM, first compound 10 µM
  viability, T/C: 29%
